Experimental data published in patent US9765105B2, “Macrolide compound” (Pulike Biological Engineering, Inc., priority 2013, dated 2017).

Tests used:
Experiment in all cases: in vitro susceptibility, MIC by mini broth dilution
Format in all cases: cell-based
[1] = test system: Staphylococcus aureus CVCC26003; settings: strain CVCC26003
Procedure: (§1) in vitro tests of susceptibility of the compounds according to the present disclosure against bacterial strains commonly used in laboratories. In accordance with the Performance Standards for Antimicrobial Disk Susceptibility Tests: Approved Standard published by the US National Committee for Clinical Laboratory Standards, the antibacterial activities of compounds prepared according to examples 5 to 187 were tested. The MICs (minimum inhibitory concentration) of the medicaments prepared according to the examples on the following bacterial strains were measured through mini broth dilution technique. Staphylococcus aureus CVCC26003, Streptococcus equines CVCC556. Actinobacillus pleuropneumoniae CVCC262, Haemophilus parasuis, and Pasteurella multocida CVCC399, which were purchased from the Control Institute of Veterinary Bioproducts and Pharmaceuticals, China. 4.1.1 Culture Medium for Staphylococcus aureus CVCC26003 Liquid culture medium: CAMHB. […] Solid culture medium: NINA prepared according to the specification of the final product. The strains were taken out of a refrigerator at −20° C. to be revived, and were spreaded by streaking on the solid culture medium with an inoculating loop. The inoculated culture medium was cultured at 35° C. in a constant temperature incubator for 20 h. […] were selected from a well-grown culture plate and streaked on the solid culture medium. The inoculated culture medium was cultured at 35° C. in the constant temperature incubator for 20 h. […] A 96-well plate was used, and 100 μl of DMSO was added into each of wells 2 to 11, and 200 μl of ready-prepared medicament solution was added into the 1st well, 100 μl of the medicament solution was extracted from the 1st well and added into the 2nd well. Double dilution was performed until the 11th well, thereby forming 11 gradients. In this case, compound of parent plate was prepared. 3 μl of double diluted medicament solution was extracted with a 12-channel pipettor and added into wells 1-11 of a new disposable 96-well culture plate. The 12th well thereof is a control well. For each medicament, there are two adjacent rows which are parallel. The transferred compound plate was reserved for later use. […] The dilution ratio was recorded, and the bacterial liquid for the tests was diluted according to the recorded dilution ratio. Subsequently, the bacterial suspension and the liquid culture medium were diluted in the proportion of 1:200. The diluted solution was reserved for later use.

[2] = test system: Actinobacillus pleuropneumoniae CVCC262; settings: strain CVCC262
Procedure: as §1, with “China. 4.1.2” for “China. 4.1.1”, “Culture Media” for “Culture Medium”, “for the Rest Four Bacterial Strains.” for “for Staphylococcus aureus CVCC26003”, “medium:” for “medium: CAMHB.”, “medium: […]” for “medium: NINA prepared according to the specification of the final product.”

Haemophilus parasuis = test system: Haemophilus parasuis
Procedure: as §1, with “China. 4.1.2” for “China. 4.1.1”, “Culture Media” for “Culture Medium”, “for the Rest Four Bacterial Strains.” for “for Staphylococcus aureus CVCC26003”, “medium:” for “medium: CAMHB.”, “medium: […]” for “medium: NINA prepared according to the specification of the final product.”

[3] = test system: Pasteurella multocida CVCC399; settings: strain CVCC399
Procedure: as §1, with “China. 4.1.2” for “China. 4.1.1”, “Culture Media” for “Culture Medium”, “for the Rest Four Bacterial Strains.” for “for Staphylococcus aureus CVCC26003”, “medium:” for “medium: CAMHB.”, “medium: […]” for “medium: NINA prepared according to the specification of the final product.”

[4] = test system: Streptococcus equines CVCC556; settings: strain CVCC556
Procedure: as §1, with “China. 4.1.2” for “China. 4.1.1”, “Culture Media” for “Culture Medium”, “for the Rest Four Bacterial Strains.” for “for Staphylococcus aureus CVCC26003”, “medium:” for “medium: CAMHB.”, “medium: […]” for “medium: NINA prepared according to the specification of the final product.”

Row | Structure (SMILES) | MIC values, Staphylococcus aureus CVCC26003 [1] | MIC values, Actinobacillus pleuropneumoniae CVCC262 [2] | MIC values, Haemophilus parasuis (Haemophilus parasuis) | MIC values, Pasteurella multocida CVCC399 [3] [ug/mi] | MIC values, Streptococcus equines CVCC556 [4]
1 | CC[C@H]1OC(=O)[C@H](C)[C@@H](O[C@H]2C[C@@](C)(OC)[C@](O)(C=NNc3ccc(F)cc3)[C@H](C)O2)[C@H](C)[C@@H](O[C@@H]2O[C@H](C)C[C@H](N(C)C)[C@H]2O)[C@](C)(O)C[C@@H](C)NC[C@H](C)[C@@H](O)[C@]1(C)O [syzx-81, (2R,3S,4R,5S,8R,10R,11R,12S,13S,14R)-13-[(2,6-dideoxy-3-C-methyl-3-O-methyl-4-C-[(4-fluoro-phenylhydrazono)-methyl]-α-L-ribopyranosyl)oxy]-2-ethyl-3,4,10-trihydroxy-3,5,8,10,12,14-hexamethyl-11-[[3,4,6-trideoxy-3-(dimethylamino)-β-D-xylo-hexopyranosy]oxy]-1-oxa-7-azacyclopentadecan-15-one] | ≦0.25 ug/mi | 2 ug/mi | ≦0.25 ug/mi | 0.25 | ≦0.25 ug/mi
2 | CCCN1C[C@H](C)[C@@H](O)[C@](C)(O)[C@@H](CC)OC(=O)[C@H](C)[C@@H](O[C@H]2C[C@@](C)(OC)[C@](O)(CNCc3ccc(F)c(F)c3)[C@H](C)O2)[C@H](C)[C@@H](O[C@@H]2O[C@H](C)C[C@H](N(C)C)[C@H]2O)[C@](C)(O)C[C@H]1C [syzx-154] | 0.25 ug/mi | 0.25 ug/mi | 0.25 ug/mi | 0.5 | 0.5 ug/mi
3 | CCCN1C[C@H](C)[C@@H](O)[C@](C)(O)[C@@H](CC)OC(=O)[C@H](C)[C@@H](O[C@H]2C[C@@](C)(OC)[C@](O)(CNc3ccc(C)c(C)c3)[C@H](C)O2)[C@H](C)[C@@H](O[C@@H]2O[C@H](C)C[C@H](N(C)C)[C@H]2O)[C@](C)(O)C[C@H]1C [syzx-184] | 2 ug/mi | 2 ug/mi | 2 ug/mi | 4 | 0.5 ug/mi

Continued, values first:

Row | MIC values, Staphylococcus aureus CVCC26003 [1] | MIC values, Actinobacillus pleuropneumoniae CVCC262 [2] | MIC values, Haemophilus parasuis (Haemophilus parasuis) | MIC values, Pasteurella multocida CVCC399 [3] [ug/mi] | MIC values, Streptococcus equines CVCC556 [4] | Structure (SMILES)
4 | 0.25 ug/mi | 0.25 ug/mi | 0.25 ug/mi | 0.5 | 0.5 ug/mi | CCCN1C[C@H](C)[C@@H](O)[C@](C)(O)[C@@H](CC)OC(=O)[C@H](C)[C@@H](O[C@H]2C[C@@](C)(OC)[C@](O)(CNCc3cccnc3)[C@H](C)O2)[C@H](C)[C@@H](O[C@@H]2O[C@H](C)C[C@H](N(C)C)[C@H]2O)[C@](C)(O)C[C@H]1C [syzx-121]
5 | ≦0.25 ug/mi | ≦0.25 ug/mi | ≦0.25 ug/mi | 32 | 4 ug/mi | CC[C@H]1OC(=O)[C@H](C)[C@@H](O[C@H]2C[C@@](C)(OC)[C@](O)(CNCc3ccc(Cl)c(Cl)c3)[C@H](C)O2)[C@H](C)[C@@H](O[C@@H]2O[C@H](C)C[C@H](N(C)C)[C@H]2O)[C@](C)(O)C[C@@H](C)NC[C@H](C)[C@@H](O)[C@]1(C)O [syzx-57, (2R,3S,4R,5S,8R,10R,11R,12S,13S,14R)-13-[(2,6-dideoxy-3-C-methyl-3-O-methyl-4-C-[(3,4-dichloro-benzylamino)-methyl]-α-L-ribopyranosyl)oxy]-2-ethyl-3,4,10-trihydroxy-3,5,8,10,12,14-hexamethyl-11-[[3,4,6-trideoxy-3-(dimethylamino)-β-D-xylo-hexopyranosy]oxy]-1-oxa-7-azacyclopentadecan-15-one]
6 | 0.25 ug/mi | 0.25 ug/mi | 0.25 ug/mi | 1 | 0.25 ug/mi | CCCN1C[C@H](C)[C@@H](O)[C@](C)(O)[C@@H](CC)OC(=O)[C@H](C)[C@@H](O[C@H]2C[C@@](C)(OC)[C@](O)(CNc3ccccc3F)[C@H](C)O2)[C@H](C)[C@@H](O[C@@H]2O[C@H](C)C[C@H](N(C)C)[C@H]2O)[C@](C)(O)C[C@H]1C [syzx-168]
7 | 1 ug/mi | 1 ug/mi | 1 ug/mi | 0.5 | 0.5 ug/mi | CC[C@H]1OC(=O)[C@H](C)[C@@H](O[C@H]2C[C@@](C)(OC)[C@](O)(CNCCCN3CCOCC3)[C@H](C)O2)[C@H](C)[C@@H](O[C@@H]2O[C@H](C)C[C@H](N(C)C)[C@H]2O)[C@](C)(O)C[C@@H](C)NC[C@H](C)[C@@H](O)[C@]1(C)O [syzx-69, (2R,3S,4R,5S,8R,10R,11R,12S,13S,14R)-13-[(2,6-dideoxy-3-C-methyl-3-O-methyl-4-C-[(3-morpholinyl-propyl-amino)-methyl]-α-L-ribopyranosyl)oxy]-2-ethyl-3,4,10-trihydroxy-3,5,8,10,12,14-hexamethyl-11-[[3,4,6-trideoxy-3-(dimethylamino)-β-D-xylo-hexopyranosy]oxy]-1-oxa-7-azacyclopentadecan-15-one]
8 | 8 ug/mi | 8 ug/mi | 4 ug/mi | 16 | 0.5 ug/mi | CC[C@H]1OC(=O)[C@H](C)[C@@H](O[C@H]2C[C@@](C)(OC)[C@](O)(CNC(C)CCc3ccccc3)[C@H](C)O2)[C@H](C)[C@@H](O[C@@H]2O[C@H](C)C[C@H](N(C)C)[C@H]2O)[C@](C)(O)C[C@@H](C)NC[C@H](C)[C@@H](O)[C@]1(C)O (stereo partly drawn) [syzx-34, (2R,3S,4R,5S,8R,10R,11R,12S,13S,14R)-13-[(2,6-dideoxy-3-C-methyl-3-O-methyl-4-C-[[(1-methyl-3-phenyl)propyl-amino]-methyl]-α-L-ribopyranosyl)oxy]-2-ethyl-3,4,10-trihydroxy-3,5,8,10,12,14-hexamethyl-11-[[3,4,6-trideoxy-3-(dimethylamino)-β-D-xylo-hexopyranosy]oxy]-1-oxa-7-azacyclopentadecan-15-one]
